Common to all, as to assay: relative viability (nuclei count vs DMSO), 5 days (fraction); higher = more cells survive
Compound in assay [1]: CCn1c(-c2nonc2N)nc2cnc(Oc3cccc(NC(=O)c4ccc(OCCN5CCOCC5)cc4)c3)cc21 + O=C(CCCCCCC(=O)Nc1ccccc1)NO [Vorinostat] (partner 1 µM)
Put shortly: (§1)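 Lung cancer cell lines were seeded in 1536-well plates and dosed by pin tool the next day, with either a single drug or a fixed anchor-drug dose combined with five library-drug doses (not always all listed) spaced in √10 steps. Five days later, one step fixed the cells and stained their nuclei (final 0.05% Triton X-100, 1% formaldehyde, 1 ug/ml Hoechst), and nuclei were counted on 4× images. Relative viability is the nuclei count in treated wells divided by the count in vehicle wells, and each value is the median of duplicate plates.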

Compound in assay [2]: CCn1c(-c2nonc2N)nc2cnc(Oc3cccc(NC(=O)c4ccc(OCCN5CCOCC5)cc4)c3)cc21 + C[C@@H](Oc1cc(-c2cnn(C3CCNCC3)c2)cnc1N)c1c(Cl)ccc(F)c1Cl [Crizotinib] (partner 1 µM)
An outline of the steps:
as §1

Compound in assay [3]: CCC1=CN=CN=C1N2CCN(CC2)CC3=NC4=C(N3)C=C(C=C4)C(F)(F)F + CS(=O)(=O)CCNCc1ccc(-c2ccc3ncnc(Nc4ccc(OCc5cccc(F)c5)c(Cl)c4)c3c2)o1 [Lapatinib] (partner 2 µM)
An outline of the steps: as §1

Compound in the assay “Mirin + Lapatinib”: N=C1NC(=O)/C(=C/c2ccc(O)cc2)S1 [Mirin] + CS(=O)(=O)CCNCc1ccc(-c2ccc3ncnc(Nc4ccc(OCc5cccc(F)c5)c(Cl)c4)c3c2)o1 [Lapatinib] (partner 2 µM)
An outline of the steps:
as §1

For UMC-11, the relative viability was 0.427 in assay [1] (first compound 0.04 µM); 0.478 in assay [1] (first compound 0.1265 µM); 0.437 in assay [1] (first compound 0.4 µM); 0.152 in assay [1] (first compound 1.265 µM); 0.158 in assay [1] (first compound 4 µM); 0.924 in assay [2] (first compound 0.04 µM). For the same cell line, the relative viability in assay [2] (first compound 0.1265 µM) was 0.743; in assay [2] (first compound 0.4 µM) it was 0.577; in assay [2] (first compound 1.265 µM), 0.135; in assay [2] (first compound 4 µM), 0.121; in assay [3] (first compound 0.04 µM), 0.808; in assay [3] (first compound 0.1265 µM), 0.974. Besides, the relative viability was 0.905 in assay [3] (first compound 0.4 µM); 0.719 in assay [3] (first compound 1.265 µM); 0.977 in assay [3] (first compound 4 µM); 0.958 with Mirin + Lapatinib (first compound 0.25 µM); 0.985 with Mirin + Lapatinib (first compound 2.5 µM); 0.548 with Mirin + Lapatinib (first compound 7.906 µM). For the same cell line, the relative viability with Mirin + Lapatinib (first compound 25 µM) was determined as 0.684.

The values are drawn from the supplement of paper PMC10307832.
